Reference: ChEMBL document CHEMBL1201862, “PubChem BioAssay data set” (2004)
Calls of active or inactive are those of the source.

How the values were obtained:
[1] = molecular target: T1, Leucine aminopeptidase (Plasmodium falciparum 3D7, UniProt Q8IL11); test: P. falciparum M17LAP inhibitors, primary screen, biochemical, fluorogenic H-Leu-NHMec substrate, 1536-well (AID 1619); format: functional
T1 sequence (Q8IL11 whole entry): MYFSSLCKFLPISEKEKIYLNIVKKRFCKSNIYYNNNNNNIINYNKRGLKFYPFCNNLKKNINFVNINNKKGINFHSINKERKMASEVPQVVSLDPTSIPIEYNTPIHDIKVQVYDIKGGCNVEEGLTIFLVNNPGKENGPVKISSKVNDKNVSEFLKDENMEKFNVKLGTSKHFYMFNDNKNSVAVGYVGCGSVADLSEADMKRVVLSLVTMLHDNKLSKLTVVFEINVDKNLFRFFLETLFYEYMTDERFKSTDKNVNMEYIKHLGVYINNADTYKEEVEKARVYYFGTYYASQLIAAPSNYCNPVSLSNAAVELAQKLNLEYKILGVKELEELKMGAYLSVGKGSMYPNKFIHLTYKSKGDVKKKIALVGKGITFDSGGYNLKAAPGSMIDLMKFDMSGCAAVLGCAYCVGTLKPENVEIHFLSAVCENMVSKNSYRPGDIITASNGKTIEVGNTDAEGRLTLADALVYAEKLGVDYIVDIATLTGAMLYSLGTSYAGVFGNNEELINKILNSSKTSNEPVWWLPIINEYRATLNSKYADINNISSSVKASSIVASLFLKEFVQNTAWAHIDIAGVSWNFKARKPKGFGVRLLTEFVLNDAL

[2] = viability of uninfected HEp-2 cells – cell-based, HTS, cytotoxicity control for RSV inhibitor project, dose response (AID 2410); format: functional; settings: human respiratory syncytial virus
[3] = cells
[4] = molecular target: T2, High affinity choline transporter 1 (Homo sapiens, UniProt Q9GZV3); test: human choline transporter blockers, potency – cell-based, 5-point CRC, membrane potential dye, dose response (AID 504840); format: functional
T2 sequence (Q9GZV3 whole entry): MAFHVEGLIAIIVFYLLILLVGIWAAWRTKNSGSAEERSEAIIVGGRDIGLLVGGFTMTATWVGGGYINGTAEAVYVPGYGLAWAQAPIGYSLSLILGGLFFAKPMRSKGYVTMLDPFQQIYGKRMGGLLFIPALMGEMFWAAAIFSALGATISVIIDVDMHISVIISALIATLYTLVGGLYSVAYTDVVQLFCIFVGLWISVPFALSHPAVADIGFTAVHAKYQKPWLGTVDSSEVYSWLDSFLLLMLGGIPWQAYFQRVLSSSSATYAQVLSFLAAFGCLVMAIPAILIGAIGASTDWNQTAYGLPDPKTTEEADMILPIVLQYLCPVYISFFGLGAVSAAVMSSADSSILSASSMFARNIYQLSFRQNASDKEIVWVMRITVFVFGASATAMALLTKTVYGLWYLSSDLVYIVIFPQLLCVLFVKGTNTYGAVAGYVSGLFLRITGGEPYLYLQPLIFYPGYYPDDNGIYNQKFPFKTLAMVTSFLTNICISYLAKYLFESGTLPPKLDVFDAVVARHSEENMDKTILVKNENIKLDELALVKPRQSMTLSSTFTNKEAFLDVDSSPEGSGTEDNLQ

[5] = molecular target: Large T antigen (Simian virus 40, UniProt P03070); format: functional, Betapolyomavirus macacae;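 further: Confirmatory-stage PubChem screen for compounds that inhibit SV40 T antigen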
Sequence of Large T antigen (P03070 whole entry): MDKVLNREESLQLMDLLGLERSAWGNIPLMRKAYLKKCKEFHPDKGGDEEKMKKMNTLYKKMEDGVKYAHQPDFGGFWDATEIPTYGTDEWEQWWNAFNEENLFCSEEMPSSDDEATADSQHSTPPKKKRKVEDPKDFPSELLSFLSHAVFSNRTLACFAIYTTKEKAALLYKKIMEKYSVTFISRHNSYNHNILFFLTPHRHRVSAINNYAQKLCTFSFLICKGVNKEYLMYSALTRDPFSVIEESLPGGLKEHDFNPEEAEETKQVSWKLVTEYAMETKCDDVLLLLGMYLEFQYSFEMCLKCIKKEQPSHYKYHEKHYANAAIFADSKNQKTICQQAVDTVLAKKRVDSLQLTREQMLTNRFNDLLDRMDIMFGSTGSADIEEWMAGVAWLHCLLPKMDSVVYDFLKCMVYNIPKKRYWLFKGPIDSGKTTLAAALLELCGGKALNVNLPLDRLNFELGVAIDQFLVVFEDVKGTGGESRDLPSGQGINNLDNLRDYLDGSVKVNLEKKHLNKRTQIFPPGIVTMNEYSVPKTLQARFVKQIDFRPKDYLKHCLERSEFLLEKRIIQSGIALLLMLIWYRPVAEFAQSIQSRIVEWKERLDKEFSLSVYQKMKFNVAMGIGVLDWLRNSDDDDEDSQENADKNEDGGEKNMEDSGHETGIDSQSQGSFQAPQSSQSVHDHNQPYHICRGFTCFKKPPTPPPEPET

[6] = molecular target: T3, Lysine-specific demethylase 4C (Homo sapiens, UniProt Q9H3R0); test: inhibition of JMJD2C H3K9me3 demethylation – biochemical, DELFIA europium, cherry-picked samples, dose response (AID 488835); format: functional
T3 sequence (Q9H3R0 whole entry): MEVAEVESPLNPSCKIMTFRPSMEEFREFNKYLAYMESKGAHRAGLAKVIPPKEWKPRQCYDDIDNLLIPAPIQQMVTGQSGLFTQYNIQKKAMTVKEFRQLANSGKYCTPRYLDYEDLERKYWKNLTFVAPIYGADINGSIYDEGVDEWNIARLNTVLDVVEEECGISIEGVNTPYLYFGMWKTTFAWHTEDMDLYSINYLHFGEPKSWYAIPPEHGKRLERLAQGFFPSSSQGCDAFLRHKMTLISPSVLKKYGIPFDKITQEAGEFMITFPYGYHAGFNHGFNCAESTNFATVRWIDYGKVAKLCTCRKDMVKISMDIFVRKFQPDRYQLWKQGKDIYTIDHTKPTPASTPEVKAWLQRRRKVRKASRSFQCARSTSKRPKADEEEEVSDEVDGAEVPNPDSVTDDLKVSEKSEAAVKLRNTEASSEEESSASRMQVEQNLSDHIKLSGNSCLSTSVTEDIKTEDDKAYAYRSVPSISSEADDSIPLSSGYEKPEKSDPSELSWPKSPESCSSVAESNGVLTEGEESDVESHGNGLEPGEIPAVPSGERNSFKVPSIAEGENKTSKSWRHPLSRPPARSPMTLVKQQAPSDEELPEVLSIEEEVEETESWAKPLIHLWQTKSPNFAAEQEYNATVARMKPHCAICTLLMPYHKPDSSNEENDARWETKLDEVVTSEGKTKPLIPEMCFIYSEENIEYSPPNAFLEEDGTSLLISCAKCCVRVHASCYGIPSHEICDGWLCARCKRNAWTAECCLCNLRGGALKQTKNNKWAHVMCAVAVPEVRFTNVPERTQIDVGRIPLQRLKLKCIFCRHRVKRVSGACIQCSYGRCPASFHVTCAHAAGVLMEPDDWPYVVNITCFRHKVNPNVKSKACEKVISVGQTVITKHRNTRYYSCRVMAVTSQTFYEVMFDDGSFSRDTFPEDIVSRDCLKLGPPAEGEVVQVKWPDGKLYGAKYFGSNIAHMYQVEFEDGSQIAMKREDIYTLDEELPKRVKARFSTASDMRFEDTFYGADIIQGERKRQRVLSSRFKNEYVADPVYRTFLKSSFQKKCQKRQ

[7] = A cytotoxicity screen of small molecule inhibitors of the PhoP region in Salmonella typhi identified in the primary screen. [Related pubchem assays: 1850, 1864, 1985 ]; format: functional
[8] = molecular target: Glyceraldehyde-3-phosphate dehydrogenase (Homo sapiens, UniProt P04406)
Sequence of Glyceraldehyde-3-phosphate dehydrogenase (P04406 whole entry): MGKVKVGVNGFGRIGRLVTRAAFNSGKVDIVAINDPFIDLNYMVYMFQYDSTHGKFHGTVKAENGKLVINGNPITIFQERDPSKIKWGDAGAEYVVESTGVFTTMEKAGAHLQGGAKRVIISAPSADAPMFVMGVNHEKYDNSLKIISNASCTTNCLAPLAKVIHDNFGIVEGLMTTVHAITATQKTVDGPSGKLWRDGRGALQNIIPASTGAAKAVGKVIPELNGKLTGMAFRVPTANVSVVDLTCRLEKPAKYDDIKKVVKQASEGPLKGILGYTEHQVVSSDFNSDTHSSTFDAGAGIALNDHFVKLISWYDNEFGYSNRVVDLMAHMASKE

[9] = system: Streptococcus sp. 'group A'; test: Streptococcus pyogenes SK(-)GAS viability under kanamycin – luminescence, BacTiterGlo, confirmation, counter-screen for streptokinase expression inhibitor project, dose response (AID 1900); format: functional, organism-based
[10] = molecular target: T4, Streptokinase A (Streptococcus pyogenes serotype M1, UniProt P10520); test: viability-normalized secreted streptokinase activity reduction – plasminogen activation absorbance, OD405, dose response (AID 1914); format: functional, Streptococcus pyogenes M1 GAS;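 further: secreted streptokinase activity via plasminogen activation per viability signal from cell pellet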
T4 sequence (P10520 whole entry): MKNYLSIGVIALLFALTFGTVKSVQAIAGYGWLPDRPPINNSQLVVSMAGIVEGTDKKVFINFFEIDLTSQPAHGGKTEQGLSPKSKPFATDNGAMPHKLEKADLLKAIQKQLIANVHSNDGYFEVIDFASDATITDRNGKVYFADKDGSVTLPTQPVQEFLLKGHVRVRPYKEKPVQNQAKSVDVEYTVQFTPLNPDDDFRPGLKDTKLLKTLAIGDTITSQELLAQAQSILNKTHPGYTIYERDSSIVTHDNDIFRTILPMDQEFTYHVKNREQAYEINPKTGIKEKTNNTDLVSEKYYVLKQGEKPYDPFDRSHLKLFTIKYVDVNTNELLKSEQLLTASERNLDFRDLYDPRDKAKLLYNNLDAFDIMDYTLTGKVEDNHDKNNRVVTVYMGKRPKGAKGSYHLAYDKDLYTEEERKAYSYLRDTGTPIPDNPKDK

[11] = system: Streptococcus; test: GAS UMAA2166 growth inhibition – luminescence, BacTiterGlo, counter-screen for streptokinase expression inhibitor project, dose response (AID 1915); format: functional, organism-based;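 further: potency for reduction of bacterial viability or growth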
[12] = molecular target: T5, Estrogen receptor (Homo sapiens, UniProt P03372);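 further: potency for inhibiting coactivator peptide recruitment to the receptor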
T5 sequence (P03372 whole entry): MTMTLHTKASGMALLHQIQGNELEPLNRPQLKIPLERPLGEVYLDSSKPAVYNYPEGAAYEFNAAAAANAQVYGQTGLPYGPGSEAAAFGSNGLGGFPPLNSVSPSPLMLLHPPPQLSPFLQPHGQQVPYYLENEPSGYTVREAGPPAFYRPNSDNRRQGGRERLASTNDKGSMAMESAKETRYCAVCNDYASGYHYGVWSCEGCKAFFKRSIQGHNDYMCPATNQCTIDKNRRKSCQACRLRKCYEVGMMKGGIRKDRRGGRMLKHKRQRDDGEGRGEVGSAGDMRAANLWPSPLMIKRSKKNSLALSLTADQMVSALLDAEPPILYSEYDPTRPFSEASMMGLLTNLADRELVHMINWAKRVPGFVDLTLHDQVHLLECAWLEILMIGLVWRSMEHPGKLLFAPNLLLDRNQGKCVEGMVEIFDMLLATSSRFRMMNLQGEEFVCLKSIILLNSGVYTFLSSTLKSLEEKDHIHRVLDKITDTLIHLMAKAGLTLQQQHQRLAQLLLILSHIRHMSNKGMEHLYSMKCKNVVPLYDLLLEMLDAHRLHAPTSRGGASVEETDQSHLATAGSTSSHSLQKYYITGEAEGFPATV

[13] = system: H9c2; test: cells; format: functional, cell-based; settings: Rattus norvegicus, H9c2, Myocardium;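 further: confirmatory concentration-response retest of ultra-high-throughput screening hits for modulation of myocardial damage; cell death induced by hydrogen peroxide oxidative stress; compound pretreatment for 60 min then peroxide exposure for 2 h; potency is for protecting the cells against peroxide damage rather than for killing them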
[14] = molecular target: T6, Corticotropin-releasing factor receptor 2/Corticotropin-releasing factor-binding protein (Homo sapiens, UniProt P24387+Q13324); test: activators of CRF receptor 2 with binding protein – uHTS hits, confirmation (AID 602473); format: functional; settings: read-out: EC50_Mean
T6 sequence (Q13324 whole entry): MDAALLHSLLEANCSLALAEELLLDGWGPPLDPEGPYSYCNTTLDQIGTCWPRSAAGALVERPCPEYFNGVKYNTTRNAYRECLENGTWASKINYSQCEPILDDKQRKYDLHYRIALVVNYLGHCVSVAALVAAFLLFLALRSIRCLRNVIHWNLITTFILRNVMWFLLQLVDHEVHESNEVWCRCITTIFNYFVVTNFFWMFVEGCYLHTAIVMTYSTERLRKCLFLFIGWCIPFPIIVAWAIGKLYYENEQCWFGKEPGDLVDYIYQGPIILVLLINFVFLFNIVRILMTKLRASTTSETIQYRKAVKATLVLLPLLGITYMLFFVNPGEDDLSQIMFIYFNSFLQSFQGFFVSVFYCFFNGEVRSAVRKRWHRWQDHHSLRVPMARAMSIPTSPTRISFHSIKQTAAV
T6 sequence (P24387 whole entry): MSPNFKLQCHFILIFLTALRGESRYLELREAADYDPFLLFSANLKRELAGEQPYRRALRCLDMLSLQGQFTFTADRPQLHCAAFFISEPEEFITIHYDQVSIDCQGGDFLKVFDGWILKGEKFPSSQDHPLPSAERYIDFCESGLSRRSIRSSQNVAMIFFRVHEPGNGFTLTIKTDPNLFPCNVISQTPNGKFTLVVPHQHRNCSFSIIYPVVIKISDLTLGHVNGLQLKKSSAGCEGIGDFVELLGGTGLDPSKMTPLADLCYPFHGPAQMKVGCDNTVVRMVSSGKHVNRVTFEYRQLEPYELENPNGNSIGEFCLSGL

In the case of `O=C(CN1C(=O)c2ccccc2C1=O)Nc1ccc2c(c1)OCO2`, the IC50 [1] is reported as 9.43 µM (active).
In the case of `CCOc1ccc(N2C(=O)C(CC(=O)Nc3ccc(F)cc3)N(Cc3ccccn3)C2=S)cc1` (centres undefined), the CC50 [2] is reported as 32.9 µM (active) and the IC50 [3] is reported as 23.9 µM (active).
With `Cc1cc(CN(C)C(=O)c2cc(COc3ccc(F)cc3Cl)on2)n[nH]1` the CC50 [2] was 39.1 µM (active), the IC50 [4] was 9.89 µM (active) and the IC50 [3] was 24.6 µM (active).
For `CC(=O)c1cc2c(O)c(O)ccc2o1`, the IC50 [1] was 75.4 µM (active), the IC50 [5] was 18.5 µM (active) and the AC50 [6] was 9.2 µM (active).
For `CCOc1ccc(NC(S)=Nc2cc(C)[nH]n2)cc1`, the EC50 [7] was > 50 µM (active).
In the case of `CC(=O)Oc1ccc(-c2cccc(C(=O)NCC(=O)O)c2)cc1`, the IC50 [8] is reported as > 100 µM (not active).
With `COc1ccc2[nH]cc(C(=O)CN3CCN(C4CCCCC4)CC3)c2c1` the IC50 [3] was 36.6 µM (active).
With `COc1cc2[nH]c(=S)n(CC3CCCO3)c(=O)c2cc1OC` (centres undefined) the EC50 [7] was > 50 µM (active).
For `O=C(CN1C2=NCCCN2c2ccccc21)c1ccc2c(c1)OCO2`, the EC50 [7] was > 50 µM (active).
In the case of `N#CC(C(=O)C12CC3CC(CC(C3)C1)C2)c1nc2ccccc2[nH]1` (centres undefined), the EC50 [7] is reported as > 50 µM (active), the EC50 [9] is reported as 5.14 µM (active) and the EC50 [10] is reported as 66 µM (active). For the same molecule, the EC50 [11] was > 150 µM (not active).
For `Cc1nc(SCC(=O)Nc2ccc3c(c2)OCCO3)nc(C)c1C`, the IC50 [1] was 43.5 µM (active).
In the case of `COc1cc(/C=c2\s/c(=C(/C#N)C(=O)N3CCCC3)n(-c3ccccc3)c2=O)ccc1O`, the IC50 [12] is reported as > 50 µM (not active), the IC50 [13] is reported as > 79 µM (inactive) and the EC50 [14] is reported as 8.71 µM (active).
In the case of `COc1cc(/C=N/NC(=O)COc2c(C)cc([N+](=O)[O-])cc2C)ccc1OC(=O)c1ccccc1`, the CC50 [2] is reported as 41.7 µM (active) and the IC50 [3] is reported as 17.9 µM (active).
